Test [1] deals with HIV. The test can be described thus: HIV infectivity, luciferase reporter assay on TZM/BI reporter cell line with azide-labeled virus. In kind it is cell-based, human immunodeficiency virus (HIVNL4-3). The conditions noted are these: virus produced in CEMx174 cells spiked with the compound; incubated 12 hours on TZM/BI; single cycle replication system; two luciferase reagents (FIGS. 3 and 4). As to the method:
CEMx174 cells were transfected with HIVNL4-3 in a T-150 flask and the virus production was monitored by reverse transcriptase activity until peak virus production occurred (usually 7 to 9 days post transfection). Prior to transfection, the CEMx174 cells were spiked with the following azide-modified biomolecules: 15-azidopentadecanoic acid (50-100 μM), 12-azidododecanoic acid (50-100 μM), tetraacetylated N-azidoacetylgalactosamine (20-40 μM), and tetraacetylated N-azidoacetyl-D-mannosamine (20-40 μM).
Labeled virus was also obtained from the transfected cells. More specifically, virus-containing supernatants were collected and virus was purified through 20% sucrose as previously described (Graham, D. R. et al., Proteomics 2008, 8:4919-30). The purified virus was then mixed with the CLICK-IT® detection reagent, tetramethylrhodamine (TAMRA) alkyne and the CLICK-IT® Protein Reaction Buffer Kit (Invitrogen, Carlsbad, Calif.). Virus samples were run on a one-dimensional gel to reveal azide-labeled viral proteins (FIG. 2). […]
To examine the effect of the azide-modified biomolecules on the innate biology of the virus, the azide-labeled virus from the transfected cells was isolated and tested in cell infection studies. […] Viral infectivity was determined by measuring cellular luciferase activities with two different luciferase reagents.
(A reporter such as luciferase makes a cellular process visible.)

Test [2] has as its system Nuclear-GFP BacMam 2.0 virus (baculovirus). The test can be described thus: BacMam baculovirus infectivity in U2-OS cells (nuclear-GFP expression). In kind it is cell-based. The conditions noted are these: virus labeled in Sf9 cells with 50 uM analog; 20 or 50 uL virus, overnight at 37C; FIG. 5. An excerpt:
Inhibition of insect cell baculovirus infectivity with azido fatty acid analogs: The BacMam system uses a modified insect cell virus (baculovirus) as a vehicle to efficiently deliver and express genes in mammalian cells, A Nuclear-GFP BacMam 2.0 expression system (Invitrogen, C10602) was used as a model to determine if PTM analog labeling of the virus would affect mammalian cell infectivity. Viruses were labeled with various PTM analogs and used to infect mammalian cells. Infectivity was determined by the expression of nuclear-GFP, is viral entry into the cell is required for expression of GFP protein. […]
Characterization of BacMam virus production: To verify, quantitate, and normalize the amount of enriched viruses obtained from insect cell supernatants, samples of each virus were lysed in SDS sample preparation buffer (SPB), sonicated with a probe tip sonicator, and heated at 90C to completely dissolve the viral proteins. Viral protein concentrations of the lysates were then determined. […]
Mammalian cell infection protocol: To determine if the PTM analog-labeled viruses retain the ability to infect mammalian cells, 50,000 U2-OS cells (human osteosarcoma cell line) were plated onto a 6 well-chamber glass bottom plate. […] The following day cells were imaged on AMG EVOS fluorescence microscope at 10× or 20× magnification using both white light and GFP filters (FIG. 5). […]

SMILES strings stand for the structures.

For the compound `[N-]=[N+]=NCCCCCCCCCCCC(=O)O` [12-azidododecanoic acid], the “impact on the infectivity of the virus (cellular luciferase activities)” value in test [1] is recorded as “profound impact on the infectivity of the virus”. For the same compound, the “nuclear-GFP expression in U2-OS cells treated with labeled BacMam virus” value in test [2] is “no nuclear-GFP expression”.
In the case of `[N-]=[N+]=NCCCCCCCCCCCCCCC(=O)O` [15-azidopentadecanoic acid], the “nuclear-GFP expression in U2-OS cells treated with labeled BacMam virus” value in test [2] is given as “no nuclear-GFP expression”.

The record behind these values is patent publication US10632133B2, “Anti-viral azide containing compounds” (Life Technologies Corporation, priority 2010, dated 2020).
